Assay results from US12638448B2, “Compositions, methods, and kits for detection of lipolytic activity” (priority 2019, dated 2026).
Several values for one entry are separate records, joined by “and”; a condition that tells them apart may be missing. Identical values can stand only once.

Key:
[1] = 4MuO auto-hydrolysis (no enzyme), 4Mu fluorescence; format: physicochemical
LipC12 lipase = conditions: as solvent; cited from earlier work
[2] = target: T1, Porcine pancreas lipase (PPL) (Sus scrofa, UniProt P00591); test: 4MuO lipase assay with porcine pancreas lipase (Examples 1A-7); conditions: for concentration at which product inhibition of lipase activity was observed: 800 nM PPL
T1 sequence (P00591 1-450): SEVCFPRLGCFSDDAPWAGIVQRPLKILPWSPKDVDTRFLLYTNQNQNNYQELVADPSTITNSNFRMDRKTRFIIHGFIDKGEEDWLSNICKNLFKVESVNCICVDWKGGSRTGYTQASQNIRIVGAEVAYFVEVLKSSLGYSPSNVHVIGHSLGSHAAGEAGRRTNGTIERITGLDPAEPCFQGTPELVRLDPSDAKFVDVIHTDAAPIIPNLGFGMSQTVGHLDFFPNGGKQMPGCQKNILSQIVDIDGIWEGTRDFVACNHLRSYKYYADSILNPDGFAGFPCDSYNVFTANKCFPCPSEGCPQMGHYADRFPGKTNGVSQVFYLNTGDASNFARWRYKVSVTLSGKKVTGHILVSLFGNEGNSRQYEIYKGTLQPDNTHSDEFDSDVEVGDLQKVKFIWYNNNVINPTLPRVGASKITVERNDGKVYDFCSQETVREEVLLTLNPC

[3] = target: T2, porcine pancreatic lipase (PPL) (Sus scrofa, UniProt P00591); test: 4MuO lipase assay with HCMB, sample containing PPL (Examples 1B-6B, 10); format: biochemical
T2 construct: purchased Sigma; host or cells: porcine pancreas
T2 sequence (P00591 1-450): T1 sequence (P00591 1-450)

[4] = cited from earlier work
[5] = test system: cell culture harvest fluid (CCHF) containing a mixture of lipases; format: biochemical, CHO cell line; conditions: negative controls, 30 min pre-incubation, 10 mg/mL mAb1, 0.02% PS80, 0.5% CCHF
[6] = as organic solvent of the assay
[7] = 10.4 mM TRIS pH 8.1, 500 nM PPL, 22 hours

CO [MeOH, methanol]
Auto-Hydrolysis (AH) [1, 6]: 0.13 µM | factor of increase of LipC12 lipase activity (LipC12 lipase): > 10

CCCCCCCCCCCC(=O)O [Lauric Acid, lauric acid, reference compound]
Auto-Hydrolysis (AH) ([1]; 8.5 μM Lauric Acid (0.001% PS20 theoretically fully degraded)): 0.15 µM | Auto-Hydrolysis (AH) ([1]; 850 μM Lauric Acid (0.1% PS20 theoretically fully degraded)): 0.08 µM | concentration at which product inhibition of lipase activity was observed [2]: above 8.5 μM

NC(CO)(CO)CO [TRIS]
Auto-Hydrolysis (AH) ([1]; 10.4 mM TRIS pH 8.1, 22 hours): 0.22 µM | Enzymatic Hydrolysis (EH − AH) [2, 7]: 1.29 µM | Total Hydrolysis (AH + EH) [2, 7]: 1.51 µM

OCCN(CCO)C(CO)(CO)CO [BIS-TRIS]
Auto-Hydrolysis (AH) ([1]; pH 6): 0.16 µM and 0.13 µM and 0.11 µM

CCCCCCCC/C=C\CCCCCCCC(=O)O [Oleic Acid, oleic acid, reference compound]
Auto-Hydrolysis (AH) ([1]; 7.8 μM Oleic Acid (0.001% PS80 theoretically fully degraded)): 0.11 µM | Auto-Hydrolysis (AH) ([1]; 780 μM Oleic Acid (0.1% PS80 theoretically fully degraded)): 0.06 µM | concentration at which product inhibition of lipase activity was observed [2]: 780 µM

[Cl-].[Na+] [NaCl, sodium chloride]
Auto-Hydrolysis (AH) ([1]; 40 mM NaCl): 0.25 µM | Auto-Hydrolysis (AH) ([1]; 120 mM NaCl): 0.29 µM | Auto-Hydrolysis (AH) ([1]; 360 mM NaCl): 0.28 µM | Enzymatic Hydrolysis (EH − AH) ([2]; 40 mM NaCl, 500 nM PPL): 0.57 µM | Total Hydrolysis (AH + EH) ([2]; 40 mM NaCl, 500 nM PPL): 0.82 µM | Enzymatic Hydrolysis (EH − AH) ([2]; 120 mM NaCl, 500 nM PPL): 0.62 µM | Total Hydrolysis (AH + EH) ([2]; 120 mM NaCl, 500 nM PPL): 0.91 µM | Enzymatic Hydrolysis (EH − AH) ([2]; 360 mM NaCl, 500 nM PPL): 0.59 µM | Total Hydrolysis (AH + EH) ([2]; 360 mM NaCl, 500 nM PPL): 0.86 µM | PPL activity (in words) ([3]; highest concentration tested (1800 mM NaCl in HCMB)): slightly decreased

[Ca+2].[Cl-].[Cl-] [CaCl2, calcium chloride]
Auto-Hydrolysis (AH) ([1]; 0.104 mM CaCl2): 0.15 µM | Auto-Hydrolysis (AH) ([1]; 1.04 mM CaCl2): 0.16 µM | Auto-Hydrolysis (AH) ([1]; 10.4 mM CaCl2): 0.16 µM | Enzymatic Hydrolysis (EH − AH) ([2]; 0.104 mM CaCl2, 500 nM PPL): 0.66 µM | Total Hydrolysis (AH + EH) ([2]; 0.104 mM CaCl2, 500 nM PPL): 0.81 µM | Enzymatic Hydrolysis (EH − AH) ([2]; 1.04 mM CaCl2, 500 nM PPL): 0.73 µM | Total Hydrolysis (AH + EH) ([2]; 1.04 mM CaCl2, 500 nM PPL): 0.90 µM | Enzymatic Hydrolysis (EH − AH) ([2]; 10.4 mM CaCl2, 500 nM PPL): 0.69 µM | Total Hydrolysis (AH + EH) ([2]; 10.4 mM CaCl2, 500 nM PPL): 0.85 µM | PPL activity (in words) ([3]; highest concentration tested (52 mM CaCl2 in HCMB)): slightly decreased

C[S+](C)[O-] [DMSO, dimethyl sulfoxide]
Auto-Hydrolysis (AH) [1, 6]: 0.14 µM

Cc1cc(=O)oc2cc(O)ccc12 [4Mu, 4-methylumbelliferone]
pKa [4]: approximately 7.7

CCCCCCCCCCC[C@@H](C[C@@H]1OC(=O)[C@H]1CCCCCC)OC(=O)[C@H](CC(C)C)NC=O [orlistat, (S)-2-formylamino-4-methyl-pentanoic acid (S)-1-[[(2S,3S)-3-hexyl-4-oxo-2-oxetanyl]methyl]-dodecyl ester, reference compound]
CCHF lipase activity in protein-containing formulation (in words) [5]: inhibited | lipolytic activity (in words) ([2]; pre-treatment (30 minutes) at 25 μM, 500 nM PPL): completely abolished | inhibition at 25 µM ([3]; 25 μM, 30 min pre-incubation, 0.0335 mg/mL PPL, read-out: reduction of enzyme activity in pre-treated sample compared to co-addition of substrate and inhibitor): ~50% | PPL activity in protein-containing formulation (in words) ([3]; negative controls, 30 min pre-incubation, 10 mg/mL mAb1, 0.02% PS80, 0.025 mg/mL PPL): inhibited

CCCCCCCC/C=C\CCCCCCCC(=O)Oc1ccc2c(C)cc(=O)oc2c1 [4MuO, 4-methylumbelliferyl oleate, reference compound]
factor by which autohydrolysis (AH) decreased ([1]; lowering the pH from 8 to 6 (TRIS / BIS-TRIS)): ~5

CC(C)O [IPA, isopropanol]
Auto-Hydrolysis (AH) [1, 6]: 0.09 µM
